Data from ChEMBL document CHEMBL6153079, “Discovery of noncovalent diaminopyrimidine-based Inhibitors for glioblastoma via a dual FAK/DNA targeting strategy” (Eur J Med Chem, 2025).
Calls of active or inactive are those of the source. The calls are words filed in the database; no cut-off is given here.

Legend:
U-87 MG [1] = assay: Antitumor activity against human U-87 MG cells xenografted in BALB/c mouse assessed as inhibition of tumor growth at 25 mg/kg, ip administered once daily for 15 days; assay type: functional, U-87MG ATCC; conditions: 360 h, time 15 day, read-out: TGI
U-87 MG [2] = assay: Induction of apoptosis in human U-87 MG cells assessed as late apoptotic cells at 0.01 uM measured upto 24 hrs by Annexin V-FITC/PI staining based flow cytometry analysis (reference value: 0.54%); assay type: functional, U-87MG ATCC
U-87 MG [3] = assay: Inhibition of colony formation in human U-87 MG cells at 0.005 uM incubated for 14 days and subsequent media replacement with compound for every 3 days by crystal violet staining based analysis; assay type: functional, cell-based; conditions: U-87MG ATCC, time 14.0 day
Focal adhesion kinase 1 [4] = biological target: T1, Focal adhesion kinase 1 (Homo sapiens, UniProt Q05397); assay: Inhibition of FAK phosphorylation in human U-87 MG cells at 0.05 uM incubated for 24 hrs by Western blot analysis; assay type: cell-based
Target sequence in this assay (Q05397 2-1052 limits assumed): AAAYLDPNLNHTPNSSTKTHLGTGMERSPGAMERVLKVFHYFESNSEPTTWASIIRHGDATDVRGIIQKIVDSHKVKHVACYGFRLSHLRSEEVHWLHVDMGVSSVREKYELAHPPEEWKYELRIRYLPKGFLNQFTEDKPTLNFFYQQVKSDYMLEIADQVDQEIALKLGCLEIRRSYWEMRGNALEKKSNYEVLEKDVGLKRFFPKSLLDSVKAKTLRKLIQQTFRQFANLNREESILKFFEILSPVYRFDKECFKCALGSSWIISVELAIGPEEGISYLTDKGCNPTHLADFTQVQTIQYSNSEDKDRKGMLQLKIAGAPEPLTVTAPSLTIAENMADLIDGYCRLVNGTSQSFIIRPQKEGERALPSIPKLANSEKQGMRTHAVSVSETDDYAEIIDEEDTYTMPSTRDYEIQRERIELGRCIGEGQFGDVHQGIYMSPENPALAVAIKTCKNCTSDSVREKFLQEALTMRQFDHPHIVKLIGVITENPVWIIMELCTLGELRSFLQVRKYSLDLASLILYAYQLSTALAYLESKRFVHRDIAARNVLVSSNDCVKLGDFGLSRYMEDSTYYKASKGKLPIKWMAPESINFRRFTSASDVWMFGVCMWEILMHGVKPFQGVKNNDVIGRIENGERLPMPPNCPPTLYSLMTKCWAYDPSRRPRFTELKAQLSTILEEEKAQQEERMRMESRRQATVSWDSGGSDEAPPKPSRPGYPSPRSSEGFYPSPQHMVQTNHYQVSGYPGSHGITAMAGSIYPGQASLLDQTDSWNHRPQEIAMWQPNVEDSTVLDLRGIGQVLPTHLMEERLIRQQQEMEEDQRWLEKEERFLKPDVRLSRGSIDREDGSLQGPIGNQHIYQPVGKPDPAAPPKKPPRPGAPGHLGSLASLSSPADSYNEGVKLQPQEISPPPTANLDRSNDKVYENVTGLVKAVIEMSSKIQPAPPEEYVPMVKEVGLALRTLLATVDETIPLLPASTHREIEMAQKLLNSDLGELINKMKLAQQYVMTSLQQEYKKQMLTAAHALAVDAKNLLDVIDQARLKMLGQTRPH

U-87 MG [5] = assay: Induction of cell cycle arrest in human U-87 MG cells assessed as accumulation of cells at G0/G1 phase at 0.01 uM by propidium Iodide staining based flow cytometry analysis (reference value: 80.68%); assay type: functional, U-87MG ATCC
U-87 MG [6] = assay: Induction of apoptosis in human U-87 MG cells assessed as necrotic cells at 0.01 uM measured upto 24 hrs by Annexin V-FITC/PI staining based flow cytometry analysis (reference value: 0.62%); assay type: functional, U-87MG ATCC
Focal adhesion kinase 1 [7] = biological target: T1, Focal adhesion kinase 1; assay: Inhibition of FAK (unknown origin) preincubated for 10 mins followed by ATP and substrate addition and measured after 50 mins by HTRF analysis
Target sequence in this assay (Q05397 whole entry): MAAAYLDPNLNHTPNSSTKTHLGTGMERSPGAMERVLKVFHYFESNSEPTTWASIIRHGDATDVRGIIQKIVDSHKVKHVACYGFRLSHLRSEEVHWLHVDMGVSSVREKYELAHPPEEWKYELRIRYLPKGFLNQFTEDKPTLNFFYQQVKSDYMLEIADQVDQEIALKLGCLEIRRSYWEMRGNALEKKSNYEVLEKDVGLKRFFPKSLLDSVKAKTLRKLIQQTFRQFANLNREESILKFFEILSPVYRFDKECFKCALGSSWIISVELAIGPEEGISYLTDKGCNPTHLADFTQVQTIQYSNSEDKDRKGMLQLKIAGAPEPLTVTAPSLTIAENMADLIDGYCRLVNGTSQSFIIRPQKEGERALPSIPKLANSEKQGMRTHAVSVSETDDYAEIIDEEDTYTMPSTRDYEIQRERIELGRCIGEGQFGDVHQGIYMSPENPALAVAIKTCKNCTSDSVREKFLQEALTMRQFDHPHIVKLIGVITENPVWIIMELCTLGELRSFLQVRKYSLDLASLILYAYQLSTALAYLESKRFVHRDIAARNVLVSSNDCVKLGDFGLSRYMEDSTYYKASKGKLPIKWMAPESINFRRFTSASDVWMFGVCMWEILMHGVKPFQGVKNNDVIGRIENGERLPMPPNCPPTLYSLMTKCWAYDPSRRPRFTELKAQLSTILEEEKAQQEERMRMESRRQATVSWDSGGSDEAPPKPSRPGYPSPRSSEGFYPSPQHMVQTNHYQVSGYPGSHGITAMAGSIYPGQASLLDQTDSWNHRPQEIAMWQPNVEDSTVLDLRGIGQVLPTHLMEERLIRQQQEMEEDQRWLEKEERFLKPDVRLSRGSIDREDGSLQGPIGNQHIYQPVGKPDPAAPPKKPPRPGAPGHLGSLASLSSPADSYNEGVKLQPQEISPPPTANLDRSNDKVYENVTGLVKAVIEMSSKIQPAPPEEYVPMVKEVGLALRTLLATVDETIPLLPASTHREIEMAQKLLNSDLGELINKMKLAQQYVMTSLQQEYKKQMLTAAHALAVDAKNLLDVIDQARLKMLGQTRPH

[8] = Toxicity in BALB/c mouse implanted with human U-87 MG cells assessed as tolerability at 5 to 25 mg/kg, ip administered once daily for 15 days by H and E staining based analysis; assay type: organism-based; conditions: in vivo, 360 h, dose 5-25 mg/kg, time 15 day
U-87 MG [9] = assay: Induction of cell cycle arrest in human U-87 MG cells assessed as accumulation of cells at G2M phase at 2 uM by propidium Iodide staining based flow cytometry analysis (reference value: 9.73%); assay type: functional, U-87MG ATCC
U-87 MG [10] = assay: Induction of cell cycle arrest in human U-87 MG cells assessed as accumulation of cells at G2M phase at 0.02 uM by propidium Iodide staining based flow cytometry analysis (reference value: 9.73%); assay type: functional, U-87MG ATCC
[11] = Toxicity in BALB/c mouse implanted with human U-87 MG cells assessed as mortality at 5 to 25 mg/kg, ip administered once daily for 15 days by H and E staining based analysis; assay type: organism-based; conditions: in vivo, 360 h, dose 5-25 mg/kg, time 15 day
U-87 MG [12] = assay: Induction of DNA damage in human U-87 MG cells assessed as comet tail moment at 0.1 to 2 uM incubated for 2.5 to 3 hrs by comet assay; assay type: functional, U-87MG ATCC; conditions: time 2.5-3 hrs
U-87 MG [13] = assay: Induction of apoptosis in human U-87 MG cells assessed as late apoptotic cells at 2 uM measured upto 24 hrs by Annexin V-FITC/PI staining based flow cytometry analysis (reference value: 0.54%); assay type: functional, U-87MG ATCC
Focal adhesion kinase 1 [14] = biological target: T1, Focal adhesion kinase 1; assay: Inhibition of FAK phosphorylation in human U-87 MG cells at 0.8 uM incubated for 24 hrs by Western blot analysis; assay type: cell-based
Target sequence in this assay (Q05397 2-1052 limits assumed): as the sequence (Q05397 2-1052 limits assumed) above

U-87 MG [15] = assay: Induction of cell cycle arrest in human U-87 MG cells assessed as accumulation of cells at S phase at 0.01 uM by propidium Iodide staining based flow cytometry analysis (reference value: 9.59%); assay type: functional, U-87MG ATCC
[16] = Effective permeability of compound at pH 7.4 incubated for 16 hrs by LCMS analysis; assay type: ADME; conditions: pH 7.4, 16 h
[17] = Cytotoxicity against human 2BS assessed as cell viability incubated for 48 hrs by MTT assay; assay type: toxicity, cell-based; conditions: 2BS cells
U-87 MG [18] = assay: Induction of apoptosis in human U-87 MG cells assessed as necrotic cells at 0.02 uM measured upto 24 hrs by Annexin V-FITC/PI staining based flow cytometry analysis (reference value: 0.62%); assay type: functional, U-87MG ATCC
[19] = Toxicity in BALB/c mouse implanted with human U-87 MG cells assessed as spleen damage at 5 mg/kg, ip administered once daily for 15 days by H and E staining based analysis; assay type: organism-based; conditions: in vivo, 360 h, time 15 day
[20] = Toxicity in BALB/c mouse implanted with human U-87 MG cells assessed as lung damage at 5 mg/kg, ip administered once daily for 15 days by H and E staining based analysis; assay type: organism-based; conditions: in vivo, 360 h, time 15 day
U-87 MG [21] = assay: Induction of cell cycle arrest in human U-87 MG cells assessed as accumulation of cells at […] at 0.2 uM by propidium Iodide staining based flow cytometry analysis (reference value: 1.67%); assay type: functional, U-87MG ATCC
[22] = Toxicity in BALB/c mouse implanted with human U-87 MG cells assessed as tubular epithelial degeneration in renal cortex at 5 mg/kg, ip administered once daily for 15 days by H and E staining based analysis; assay type: organism-based; conditions: in vivo, 360 h, time 15 day
U-87 MG [23] = assay: Induction of apoptosis in human U-87 MG cells assessed as […] in Bcl-xL level at 0.05 to 0.8 uM incubated for 24 hrs by Western blot analysis; assay type: functional, cell-based; conditions: U-87MG ATCC, dose 0.05-0.8 µM
U-87 MG [24] = assay: Induction of apoptosis in human U-87 MG cells assessed as late apoptotic cells at 0.2 uM measured upto 24 hrs by Annexin V-FITC/PI staining based flow cytometry analysis (reference value: 0.54%); assay type: functional, U-87MG ATCC
[25] = Cytotoxicity against human LO2 assessed as cell viability incubated for 48 hrs by MTT assay; assay type: toxicity, cell-based, L02; conditions: LO2 cells
U-87 MG [26] = assay: Induction of apoptosis in human U-87 MG cells assessed as viable cells at 0.2 uM measured upto 24 hrs by Annexin V-FITC/PI staining based flow cytometry analysis (reference value: 98.4%); assay type: functional, U-87MG ATCC; conditions: read-out: Activity
[27] = Toxicity in BALB/c mouse implanted with human U-87 MG cells assessed as liver damage at 25 mg/kg, ip administered once daily for 15 days by H and E staining based analysis; assay type: organism-based; conditions: in vivo, 360 h, time 15 day
[28] = Toxicity in BALB/c mouse implanted with human U-87 MG cells assessed as body weight loss at 5 to 25 mg/kg, ip administered once daily for 15 days by H and E staining based analysis; assay type: organism-based; conditions: in vivo, 360 h, dose 5-25 mg/kg, time 15 day
U-87 MG [29] = assay: Inhibition of cell migration in human U-87 MG cells assessed as […] in migration distance at 0.1 to 1 uM incubated for 24 to 48 hrs by wound healing assay; assay type: functional, cell-based; conditions: U-87MG ATCC, dose 0.1-1 µM, time lower 24.0 hrs, time upper […]
U-87 MG [30] = assay: Induction of cell cycle arrest in human U-87 MG cells assessed as accumulation of cells at S phase at 0.02 uM by propidium Iodide staining based flow cytometry analysis (reference value: 9.59%); assay type: functional, U-87MG ATCC
U-87 MG [31] = assay: Antiproliferative activity against human U-87 MG assessed as cell viability incubated for 48 hrs by MTT assay; assay type: functional, cell-based, U-87MG ATCC
U-87 MG [32] = assay: Induction of cell cycle arrest in human U-87 MG cells assessed as accumulation of cells at S phase at 0.2 uM by propidium Iodide staining based flow cytometry analysis (reference value: 9.59%); assay type: functional, U-87MG ATCC
U-87 MG [33] = assay: Induction of cell cycle arrest in human U-87 MG cells assessed as accumulation of cells at G0/G1 phase at 0.2 uM by propidium Iodide staining based flow cytometry analysis (reference value: 80.68%); assay type: functional, U-87MG ATCC
U-87 MG [34] = assay: Inhibition of AKT phosphorylation in human U-87 MG cells at 0.8 uM incubated for 24 hrs by Western blot analysis; assay type: cell-based

Q: For `CNC(=O)c1ccccc1Nc1nc(Nc2ccc(N3CCN(CCOC(=O)CCCc4ccc(N(CCCl)CCCl)cc4)CC3)cc2)ncc1C(F)(F)F`, which inhibition in vivo at 25 mg/kg (U-87 MG [1]) is on record?
A: The inhibition in vivo at 25 mg/kg was 82.5%.

Q: And the Activity (U-87 MG [2])?
A: Its Activity is 4.61%.

Q: What about the inhibition (U-87 MG [3]) of the same molecule?
A: The inhibition was “Active”.

Q: What about the inhibition (Focal adhesion kinase 1 [4]) of the same molecule?
A: The inhibition was “Active”.

Q: What about the Activity (U-87 MG [5]) of the same molecule?
A: Its Activity is 69.64%.

Q: And the Activity (U-87 MG [6])?
A: The Activity was 4.83%.

Q: What about the IC50 (Focal adhesion kinase 1 [7]) of the same molecule?
A: Its IC50 is 0.815 nM.

Q: What about the Activity [8] of the same molecule?
A: The Activity was “Non-toxic”.

Q: What about the Activity (U-87 MG [9]) of the same molecule?
A: Its Activity is 50.11%.

Q: What about the Activity (U-87 MG [10]) of the same molecule?
A: Its Activity is 20.9%.

Q: What about the Activity [11] of the same molecule?
A: The Activity was “Non-toxic”.

Q: And the Activity (U-87 MG [12])?
A: The Activity was 11.6.

Q: What about the Activity (U-87 MG [13]) of the same molecule?
A: The Activity was 7.19%.

Q: What about the inhibition (Focal adhesion kinase 1 [14]) of the same molecule?
A: Its inhibition is 100%.

Q: What about the Activity (U-87 MG [15]) of the same molecule?
A: Its Activity is 13.83%.

Q: And the Peff [16]?
A: Its Peff is 0.002 10^-6 cm/s.

Q: And the IC50 at 48 h [17]?
A: The IC50 at 48 h was 11100 nM.

Q: What about the Activity (U-87 MG [18]) of the same molecule?
A: Its Activity is 5.5%.

Q: And the Activity [19]?
A: Its Activity is “Non-toxic”.

Q: And the Activity [20]?
A: Its Activity is “Non-toxic”.

Q: And the Activity (U-87 MG [21])?
A: Its Activity is 1.81%.

Q: What about the Activity [22] of the same molecule?
A: Its Activity is “Non-toxic”.

Q: And the Activity (U-87 MG [23])?
A: The Activity was “Active”.

Q: What about the Activity (U-87 MG [24]) of the same molecule?
A: The Activity was 5.65%.

Q: And the IC50 at 48 h [25]?
A: The IC50 at 48 h was 586 nM.

Q: What about the viability at 0.2 µM (U-87 MG [26]) of the same molecule?
A: Its viability at 0.2 µM is 63.7%.

Q: What about the Activity [27] of the same molecule?
A: Its Activity is “Non-toxic”.

Q: And the Activity [28]?
A: The Activity was “Non-toxic”.

Q: And the inhibition (U-87 MG [29])?
A: The inhibition was “Active”.

Q: And the Activity (U-87 MG [30])?
A: Its Activity is 16.42%.

Q: What about the IC50 (U-87 MG [31]) of the same molecule?
A: The IC50 was 15 nM.

Q: What about the Activity (U-87 MG [32]) of the same molecule?
A: The Activity was 11.41%.

Q: What about the Activity (U-87 MG [33]) of the same molecule?
A: The Activity was 44.98%.

Q: And the inhibition (U-87 MG [34])?
A: The inhibition was 100%.
